Structures can show the parent of a compound that is named as a salt.
Key:
New Zealand rabbits = assay: Occlusion-reperfusion model in the anesthetized animal (ECG ST segment, arterial pressure, heart rate); format: in vivo, rabbit; conditions: 2.5 mg/kg p.o., anesthetized rabbit
Procedure: Thus, the compounds of the invention are capable of normalizing the electrical disturbances of the ECG brought about by a regional ischemia followed by a reperfusion, this being achieved without a significant effect on the hemodynamic parameters. The test in question is carried out according to the technique described in J. Cardiovasc. Pharmacol., 1995, 25, 126 according to the following protocol.
Male New Zealand rabbits (Elévage des Dombes, Romans, Chatillon-sur-Chalaronne, France) weighing 2.2 to 2.7 kg are used. The animals are placed in quarantine for 4 to 8 days with free access to standardized laboratory food before they are used in the experiments. The animals are housed individually. Water filtered through a 0.22 μm filter is freely available from an automatic dispenser. The quarantine area and the experimental laboratory are air-conditioned (temperature: 20±3° C.; relative humidity: 55±5%) and are illuminated from 7 a.m. to 7 p.m. All the animals are treated according to the code of ethics for laboratory animals (Guide for the Care and Use of Laboratory Animals, […], Public Health Service, National Institutes of Health publication No. 85-23, Revised 1985) and the protocol (No. 28) is carried out in accordance with the recommendations of the local research animals ethics committee. The animals are anesthetized using sodium pentobarbital (60 mg/kg) administered intravenously (i.v.) via a catheter positioned in the vein of the ear. The animals are instrumented with respiratory assistance (683 rodent/small animal ventilator, Havard Apparatus, Les Ulis, France). The gas mixture inhaled is enriched in oxygen. The respiratory rhythm, the flow volume and the percentage of oxygen in the gas mixture are adjusted so as to keep the gases in the blood within physiological limits. A polyethylene catheter, introduced into the carotid artery, is used both for the measurements of arterial pressure and to take the samples intended for the analysis of the blood gases (ABL 510, Radiometer, Copenhagen, Denmark). Anesthesia is maintained by injections of sodium pentobarbital as required. The body temperature of the animals is kept at 38–39° C. throughout the duration of the experiment using a heating blanket (Homothermic Blanket, Havard Apparatus). The various catheters are rinsed using a sterile saline solution (0.9%) comprising heparin (150 U.I./ml). The ECG (DII derivation) is recorded in order to measure the variations in the heart rate (RR interval) and in the amplitude of the ST segment. The arterial pressure is digitized and analyzed simultaneously (Dataflow®, Crystal Biotech, Northboro, Mass.). The thorax of the animal is opened at the fourth intercostal space and the pericardium is incised so as to reveal the left coronary artery. A ligature (Vicryl®, 5/0, Ethicon, Paris, France) is passed under this artery. After examining the ECG in order to detect any signs of myocardial lesions (persistent rise of the ST segment above 0.25 mV), a period of stabilization lasting 30 min is systematically observed. Any animal showing a possible myocardial lesion is excluded from the study. The test compound or the vehicle is administered per os (p.o.), as a 1% solution in methyl-cellulose, in a proportion of 1 ml/kg via a gastric tube made of flexible rubber. Anesthesia is produced 60 min after administration of the test compound or of the vehicle. The main coronary artery is then ligated for 10 min, i.e. 60 min after anesthesia, the tension in the ligature is subsequently relaxed completely for 10 min and then reestablished at the end of the procedure. The heart is excised and perfused using a formaldehyde solution (10%). The surface not fixed by the formaldehyde is regarded as the surface at risk.
The parameters measured in the experiment are: • the systolic and diastolic arterial pressure; • the heart rate (measured from the RR intervals); • the amplitude of the ST segment. […]

rat isolated left atrium = assay: Inhibition of the veratrine-induced contraction of the rat isolated left atrium; format: cell-based; conditions: rat isolated left atrium, veratrine 100 μg/ml, product added 15 min before; read-out: Contraction with veratrine Inhibition IC50

| Compound | melting point | other results |
| --- | --- | --- |
| COc1ccccc1SC[C@@H](O)CN[C@@H]1COc2ccccc2SC1 (as salt: maleate) [Compound 1-5, 3-(R)-[3-(2-Methoxyphenylthio)-2-(S)-hydroxypropyl]amino-3,4-dihydro-2H-1,5-benzoxathiepine] | 133 to 135 °C |  |
| Oc1ccccc1SC[C@H](O)CN[C@@H]1COc2ccccc2SC1 (as salt: oxalate) [Compound 1-4, 3-(R)-[3-(2-Hydroxyphenylthio)-2-(R)-hydroxypropyl]amino-3,4-dihydro-2H-1,5-benzoxathiepine] | 135 °C |  |
| COc1ccccc1SC[C@H](CN[C@@H]1COc2ccccc2SC1)OC [Compound 1-1, 3-(R)-[3-(2-Methoxyphenylthio)-2-(S)-methoxypropyl]amino-3,4-dihydro-2H-1,5-benzoxathiepine] |  | Arterial pressure % variation (New Zealand rabbits): 8%; Heart rate % variation (New Zealand rabbits): 2%; ST segment % inhibition at 2.5 mg/kg p.o. (New Zealand rabbits; coronary occlusion-reperfusion): 85%; IC50 (rat isolated left atrium): 640 nM |
| CC[C@@H](CN[C@@H]1COc2ccccc2SC1)CSc1ccccc1OC (as salt: fumarate) [Compound 1-9, 3-(R)-[3-(2-Methoxyphenylthio)-2-(S)-ethylpropyl]amino-3,4-dihydro-2H-1,5-benzoxathiepine] | 86 to 88 °C |  |
| COc1ccccc1SC[C@@H](CN[C@@H]1COc2ccccc2SC1)OC (as salt: maleate) [Compound 1-2, 3-(R)-[3-(2-Methoxyphenylthio)-2-(R)-methoxypropyl]amino-3,4-dihydro-2H-1,5-benzoxathiepine] | 116 °C |  |
| COc1ccccc1SC[C@H](CN[C@@H]1COc2ccccc2SC1)C(C)C (as salt: maleate) [Compound 1-13, 3-(R)-[3-(2-Methoxyphenylthio)-2-(S)-(isopropyl)propyl]amino-3,4-dihydro-2H-1,5-benzoxathiepine] | 114 to 115 °C |  |
| CCC[C@H](CN[C@@H]1COc2ccccc2SC1)CSc1ccccc1OC (as salt: maleate) [Compound 1-12, 3-(R)-[3-(2-Methoxyphenylthio)-2-(R)-(n-propyl)propyl]amino-3,4-dihydro-2H-1,5-benzoxathiepine] | 131 to 133 °C |  |
| COc1ccccc1SC[C@@H](C)CN[C@@H]1COc2ccc(C)cc2SC1 (as salt: maleate) [Compound 1-14, 3-(R)-[3-(2-Methoxyphenylthio)-2-(S)-methylpropyl]amino-7-methyl-3,4-dihydro-2H-1,5-benzoxathiepine] | 148 °C |  |
| Oc1ccccc1SC[C@@H](O)CN[C@@H]1COc2ccccc2SC1 (as salt: oxalate) [Compound 1-3, 3-(R)-[3-(2-Hydroxyphenylthio)-2-(S)-hydroxypropyl]amino-3,4-dihydro-2H-1,5-benzoxathiepine] | 176 to 177 °C |  |
| COc1ccccc1SC[C@H](O)CN[C@@H]1COc2ccccc2SC1 (as salt: maleate) [Compound 1-6, 3-(R)-[3-(2-Methoxyphenylthio)-2-(R)-hydroxypropyl]amino-3,4-dihydro-2H-1,5-benzoxathiepine] | 136 to 138 °C |  |
| CCC[C@@H](CN[C@@H]1COc2ccccc2SC1)CSc1ccccc1OC (as salt: maleate) [Compound 1-11, 3-(R)-[3-(2-Methoxyphenylthio)-2-(S)-(n-propyl)propyl]amino-3,4-dihydro-2H-1,5-benzoxathiepine] | 132 to 133 °C |  |
| COc1ccccc1SC[C@H](CN[C@@H]1COc2ccccc2SC1)OC (as salt: maleate) [Compound 1-1, 3-(R)-[3-(2-Methoxyphenylthio)-2-(S)-methoxypropyl]amino-3,4-dihydro-2H-1,5-benzoxathiepine] | 122 °C |  |
| CC[C@H](CN[C@@H]1COc2ccccc2SC1)CSc1ccccc1OC (as salt: maleate) [Compound 1-10, 3-(R)-[3-(2-Methoxyphenylthio)-2-(R)-ethylpropyl]amino-3,4-dihydro-2H-1,5-benzoxathiepine] | 140 °C |  |

Now from value to molecule, other results behind:

| melting point | Compound | other results |
| --- | --- | --- |
| 120 °C | CCc1cccc(SC[C@@H](C)CN[C@@H]2COc3ccccc3SC2)c1O (as salt: maleate) [Compound 1-19, 3-(R)-[3-(2-Hydroxy-3-ethylphenylthio)-2-(S)-methylpropyl]amino-3,4-dihydro-2H-1,5-benzoxathiepine] |  |
| 111 to 112 °C | CC[C@@H](CN[C@@H]1COc2ccccc2SC1)CSc1cccc(C)c1O (as salt: maleate) [Compound 1-20, 3-(R)-[3-(2-Hydroxy-3-methylphenylthio)-2-(S)-ethylpropyl]amino-3,4-dihydro-2H-1,5-benzoxathiepine] |  |
| 126 °C | CC(C)c1cccc(SC[C@@H](C)CN[C@@H]2COc3ccccc3SC2)c1O (as salt: maleate) [Compound 1-25, 3-(R)-[3-(2-Hydroxy-3-(isopropyl)phenylthio)-2-(S)-methylpropyl]amino-3,4-dihydro-2H-1,5-benzoxathiepine] |  |
| 127 °C | Cc1cccc(SC[C@H](CN[C@@H]2COc3ccccc3SC2)C(C)C)c1O (as salt: maleate) [Compound 1-21, 3-(R)-[3-(2-Hydroxy-3-methylphenylthio)-2-(S)-(isopropyl)propyl]amino-3,4-dihydro-2H-1,5-benzoxathiepine] |  |
| 124 to 126 °C | Cc1cccc(SC[C@@H](C)CN[C@@H]2COc3ccccc3SC2)c1O (as salt: maleate) [Compound 1-17, 3-(R)-[3-(2-Hydroxy-3-methylphenylthio)-2-(S)-methylpropyl]amino-3,4-dihydro-2H-1,5-benzoxathiepine] |  |
| 137 to 139 °C | COc1cccc(SC[C@@H](C)CN[C@@H]2COc3ccccc3SC2)c1O (as salt: maleate) [Compound 1-23, 3-(R)-[3-(2-Hydroxy-3-methoxyphenylthio)-2-(S)-methylpropyl]amino-3,4-dihydro-2H-1,5-benzoxathiepine] |  |
| 108 to 109 °C | Cc1cccc(SC[C@@H](C)CN[C@@H]2COc3cccc(C)c3SC2)c1O (as salt: maleate) [Compound 1-22, 3-(R)-[3-(2-Hydroxy-3-methylphenylthio)-2-(S)-methylpropyl]amino-6-methyl-3,4-dihydro-2H-1,5-benzoxathiepine] |  |
| 119 to 121 °C | C[C@@H](CN[C@@H]1COc2ccccc2SC1)CSc1ccccc1O (as salt: maleate) [Compound 1-18, 3-(R)-[3-(2-Hydroxyphenylthio)-2-(S)-methylpropyl]amino-3,4-dihydro-2H-1,5-benzoxathiepine] |  |
| 153 to 154 °C | Cc1cccc(O)c1SC[C@@H](C)CN[C@@H]1COc2ccccc2SC1 (as salt: maleate) [Compound 1-26, 3-(R)-[3-(2-Hydroxy-6-methylphenylthio)-2-(S)-methylpropyl]amino-3,4-dihydro-2H-1,5-benzoxathiepine] |  |
| 116 to 118 °C | C[C@@H](CN[C@@H]1COc2ccccc2SC1)CSc1cccc2c1OCC2 (as salt: maleate) [Compound 1-16, 3-(R)-[3-(2,3-Dihydrobenzofuran-7-thio)-2-(S)-methylpropyl]amino-3,4-dihydro-2H-1,5-benzoxathiepine] |  |
| 111 to 113 °C | COc1ccccc1SC[C@@H](C)CN[C@@H]1COc2cccc(C)c2SC1 (as salt: maleate) [Compound 1-15, 3-(R)-[3-(2-Methoxyphenylthio)-2-(S)-methylpropyl]amino-6-methyl-3,4-dihydro-2H-1,5-benzoxathiepine] |  |
| 117 to 119 °C | COc1cccc(SC[C@@H](C)CN[C@@H]2COc3ccccc3SC2)c1OC (as salt: maleate) [Compound 1-24, 3-(R)-[3-(2,3-Dimethoxyphenylthio)-2-(S)-methylpropyl]amino-3,4-dihydro-2H-1,5-benzoxathiepine] |  |
